Like-named read-outs stand apart in the source and are kept apart here.
Tests used:
MDA-MB-231 = experiment: Cell proliferation assay (14C-thymidine incorporation), MDA-MB-231; format: cell-based; details: Homo sapiens, read-out: Inhibition of cell proliferation IC50
Experimental: (§1) The ability of a test compound to inhibit the proliferation of cell growth was determined by measuring incorporation of ^14C-labelled thymidine into newly synthesized DNA within the cells. This method was used on cell lines derived from carcinomas originating from several tissues such as HeLa cervical adenocarcinoma (American Type Culture Collection (ATCC), Virginia, Cat. #CCL-2), A375 malignant melanoma (ATCC CRL-1619), SK-OV-3 ovarian adenocarcinoma (ATCC HTB-77) HCT-116 colon carcinoma (CCL-247) and PC-3 prostate adenocarcinoma (ATCC CRL-1435). The method was also used on primary cells such as HUVEC endothelial cells (ATCC CRL-1730). In this way the effect of a compound on cell growth of cells with many different phenotypes can be determined. Cells were trypsinized and counted and 3000-8000 cells were added to each well of a 96-well CytoStar tissue culture treated scintillating microplate (Amersham #RPNQ0160) in complete medium in a volume of 100 μl. Cells were incubated for 24 hours in complete medium at 37° C. in an atmosphere containing 5% CO2.
(§2) Next, 1 μl of test compound in 100% DMSO was added to the wells of the plate. DMSO only was added to control wells. Cells were incubated for 24 more hours in complete medium at 37° C. in an atmosphere containing 5% CO2. Methyl ^14C-thymidine 56 mCi/mmol (NEN #NEC568 or Amersham #CFA532) was diluted in complete medium and 0.2 μCi/well was added to each well of the CytoStar plate in a volume of 20 μl. The plate was incubated for 24 hours at 37° C. plus 5% CO2 in drug plus ^14C-thymidine. The contents of the plate were discarded into a ^14C radioactive waste container by inverting the plate and the plate was washed twice with 200 μl PBS. 200 μl of PBS is then added to each well. The top of the plate was sealed with a transparent plate sealer and a white plate backing sealer (Packard #6005199) was applied to the bottom of the plate. The degree of Methyl ^14C-thymidine incorporation was quantified on a Packard Top Count.

HCT-116 colon carcinoma = experiment: Cell proliferation assay (14C-thymidine incorporation), HCT-116; format: cell-based; details: Homo sapiens, read-out: Inhibition of cell proliferation IC50
Experimental: as §1, §2

[1] = test system: PC-3 prostate adenocarcinoma; experiment: Cell proliferation assay (14C-thymidine incorporation), PC-3; format: cell-based; details: Homo sapiens, read-out: Inhibition of cell proliferation IC50
Experimental: as §1, §2

[2] = test system: HeLa cervical adenocarcinoma; experiment: Cell proliferation assay (14C-thymidine incorporation), HeLa; format: cell-based; details: Homo sapiens, read-out: Inhibition of cell proliferation IC50
Experimental: as §1, §2

[3] = test system: SK-OV-3 ovarian adenocarcinoma; experiment: Cell proliferation assay (14C-thymidine incorporation), SK-OV-3; format: cell-based; details: Homo sapiens, read-out: Inhibition of cell proliferation IC50
Experimental: as §1, §2

HER2 = HER2 (Homo sapiens, UniProt P04626); experiment: HER2 kinase selectivity assay; format: biochemical; details: Table 4 kinase selectivity; read-out: IC50, Assay 16 HER2
Experimental: (§3) Assays to test compound inhibition of other kinases were preformed using methods that measure the amount of phosphorylation of a biotinylated peptide substrate. Biotinylated peptide substrates were selected from the literature as appropriate for the enzyme being evaluated. The general procedure used to assay for kinase activity is as follows: A kinase reaction mix was prepared in 50 mM Tris-HCl pH=8, 10 mM MgCl2, 0.1 mM NaVO4, 1 mM DTT, 5-10 μM ATP, 0.25-1 μM biotinylated peptide substrate, 0.2-0.8 μCuries per well ^33P-γ-ATP [2000-3000 Ci/mmol]. Assay conditions vary slightly for each protein kinase, for example, insulin receptor kinase requires 10 mM MnCl2 for activity and Calmodulin-dependent protein kinase requires calmodulin and 2 mM CaCl2. The reaction mixture was dispensed into the wells of a streptavidin coated Flashplate and 1 μl drug stock in 100% DMSO was added to a 100 μl reaction volume resulting in a final concentration of 1% DMSO in the reaction. Enzyme was diluted in 50 mM Tris-HCl pH=8.0, 0.1% BSA and added to each well. The reaction was incubated for one hour at 30° C. in the presence of compound. After one hour the reaction mix was aspirated from the plate and the plate was washed with PBS containing 100 mM EDTA. The plate was read on a scintillation counter to determine ^33P-γ-ATP incorporated into the immobilized peptide. Test compounds were assayed in duplicate at 8 concentrations [100 tM, 10 μM, 1 μM, 100 nM, 10 nM, 1 nM, 100 μM, 10 μM]. A maximum and minimum signal for the assay was determined on each plate. The IC50 was calculated from the dose response curve of the percent inhibition of the maximum signal in the assay according to the formula [max signal−background/test compound signal−background (100)=% inhibition] by graphing the percent inhibition against the log concentration of test compound. Known inhibitor compounds appropriate for the kinase being assayed were also included on each plate.

[4] = target: T1, CDK1 (cyclin dependent kinase 1) / cyclin B (Homo sapiens, UniProt P06493); experiment: CDK1 kinase assay; format: biochemical
T1 construct: purchased New England Biolabs 6020; host or cells: insect cells
Experimental: (§4) The term n.d. means not tested.
as §3, with “Test compounds were assayed in duplicate at 8 concentrations [100 tM, 10 μM, 1 μM, 100 nM, 10 nM, 1 nM, 100 μM, 10 μM].” left out
VEGF-R (vascular endothelial growth factor receptor-2) is a fusion protein containing a polyhistidine tag at the N-terminus followed by amino acids 786-1343 of the rat VEGF-R2 kinase domain (GenBank Accession #U93306). CDK1 (cyclin dependent kinase 1) is isolated from insect cells expressing both the human CDK1 catalytic subunit and its positive regulatory subunit cyclin B (New England Biolabs, Beverly, Mass., Cat. #6020). CDK4 (cyclin dependent kinase 4) contains amino acids 769 to 921 of the mouse […] protein found in the GST-retinoblastoma protein construct (Santa Cruz Biotechnology, Santa Cruz, Calif.; Cat. #SC-4112). Insulin Receptor Kinase consists of residues 941-1313 of the cytoplasmic domain of the beta-subunit of the human insulin receptor (BIOMOL, Plymouth Meeting, Pa., Cat. #SE-195). Protein Kinase A is the catalytic subunit of cAMP dependent protein kinase-A purified from bovine heart (Upstate Biotech, Lake Placid, N.Y., Cat#14-114). PKC (protein kinase-C) is the gamma or beta isoform of the human protein produced in insect cells (BIOMOL, Plymouth Meeting, Pa., Cat. #SE-143). Casein Kinase 1 is a truncation at amino acid 318 of the C-terminal portion of the rat CK1 delta isoform produced in E.coli (New England Biolabs, Beverly, Mass., Cat. #6030). Casein Kinase 2 includes the alpha and beta subunits of the human CK2 protein produced in E.coli (New England Biolabs, Beverly, Mass., Cat. #6010). Calmodulin Kinase (calmodulin-dependent protein kinase 2) is a truncated version of the alpha subunit of the rat protein produced in insect cells (New England Biolabs, Beverly, Mass., Cat. #6060). Glycogen Synthase Kinase-3 is the beta isoform of the rabbit enzyme produced in E. coli (New England Biolabs, Beverly, Mass., Cat. #6040). MAP Kinase is the rat ERK-2 isoform containing a polyhistidine tag at the N-terminus produced in E. coli. and activated by phosphorylation with MEK1 prior to purification (BIOMOL, Plymouth Meeting, Pa., Cat. #SE-137). EGFR (epidermal growth factor receptor) is purified from human A431 cell membranes (Sigma, St. Louis, Mo., Cat.# E3641). […]

FGF-R2 = FGF-R2 (Homo sapiens, UniProt P21802); experiment: FGF-R2 kinase selectivity assay; format: biochemical; details: Table 4 kinase selectivity; read-out: IC50, Assay 15 FGF-R2
Experimental: as §3

[5] = target: T2, VEGF-R (vascular endothelial growth factor receptor-2) (Rattus norvegicus, UniProt O08775); experiment: VEGF-R screening assay (33P FlashPlate kinase assay); format: biochemical
T2 construct: polyhistidine (6xHis) (N)
Experimental: A kinase reaction mixture was prepared containing 50 mM Tris-HCl pH=8, 10 mM MgCl2, 0.1 mM NAPO4, 1 mM DTT, 10 μM ATP, 0.025 μM biotinylated peptide substrate and 0.8 μCuries per well ^33P-γ-ATP [2000-3000 Ci/mmol]. 70 μl of the kinase reaction mixture was dispensed into the well of a streptavidin coated FlashPlate™ (Cat. # SMP103, NEN, Boston, Mass.). Then 1 μl of test compound stock in 100% DMSO was added to the wells resulting in a final concentration of 1% DMSO in the reaction with a 100 μl final reaction volume. Next, soluble rat tyrosine kinase containing an N-terminal 6×HIS tag was diluted in 50 mM Tris-HCl pH=8.0, 0.1% BSA at a concentration of 5 ng per microliter and 30 μl (150 ng enzyme per test well) was added to each well to initiate the reaction. The reaction was incubated for one hour at 30° C. At the end of the 1-hour incubation, the reaction was terminated by aspirating the reaction mixture from the plate and washing the wells twice with PBS containing 100 mM EDTA. The PLCI biotinylated peptide substrate becomes immobilized on the Flashplate™ and the incorporation of ^33P-γ-ATP was measured by reading the plate on a scintillation counter. Inhibition of the enzymatic activity of the VEGF-R was measured by observing a reduced amount of ^33P-γ-ATP incorporated into the immobilized peptide.
as §4, §3
VEGF-R (vascular endothelial growth factor receptor-2) is a fusion protein containing a polyhistidine tag at the N-terminus followed by amino acids 786-1343 of the rat VEGF-R2 kinase domain (GenBank Accession #U93306). CDK1 (cyclin dependent kinase 1) is isolated from insect cells expressing both the human CDK1 catalytic subunit and its positive regulatory subunit cyclin B (New England Biolabs, Beverly, Mass., Cat. #6020). CDK4 (cyclin dependent kinase 4) contains amino acids 769 to 921 of the mouse […] protein found in the GST-retinoblastoma protein construct (Santa Cruz Biotechnology, Santa Cruz, Calif.; Cat. #SC-4112). […]

[6] = Tables 1-3, >10 or >100 = no 50% inhibition at highest dose tested, read-out: CDK IC50
[7] = Tables 1-3, >10 or >100 = no 50% inhibition at highest dose tested, read-out: VEGF-R IC50

T2 sequence (O08775 786-1343): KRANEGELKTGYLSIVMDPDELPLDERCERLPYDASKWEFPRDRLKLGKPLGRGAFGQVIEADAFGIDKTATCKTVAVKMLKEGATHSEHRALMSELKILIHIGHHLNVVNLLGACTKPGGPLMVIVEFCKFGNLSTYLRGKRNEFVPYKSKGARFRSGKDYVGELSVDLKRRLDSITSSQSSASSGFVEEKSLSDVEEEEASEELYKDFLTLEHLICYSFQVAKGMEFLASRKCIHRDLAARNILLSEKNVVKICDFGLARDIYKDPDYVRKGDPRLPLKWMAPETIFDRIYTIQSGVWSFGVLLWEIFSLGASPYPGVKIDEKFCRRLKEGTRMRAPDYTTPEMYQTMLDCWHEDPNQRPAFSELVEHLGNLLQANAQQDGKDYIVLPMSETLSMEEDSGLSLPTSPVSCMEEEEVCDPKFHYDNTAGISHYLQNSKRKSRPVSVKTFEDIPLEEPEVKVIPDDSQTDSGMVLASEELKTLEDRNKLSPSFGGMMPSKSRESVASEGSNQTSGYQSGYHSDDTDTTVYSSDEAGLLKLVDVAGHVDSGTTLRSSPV
T1 sequence (P06493 whole entry): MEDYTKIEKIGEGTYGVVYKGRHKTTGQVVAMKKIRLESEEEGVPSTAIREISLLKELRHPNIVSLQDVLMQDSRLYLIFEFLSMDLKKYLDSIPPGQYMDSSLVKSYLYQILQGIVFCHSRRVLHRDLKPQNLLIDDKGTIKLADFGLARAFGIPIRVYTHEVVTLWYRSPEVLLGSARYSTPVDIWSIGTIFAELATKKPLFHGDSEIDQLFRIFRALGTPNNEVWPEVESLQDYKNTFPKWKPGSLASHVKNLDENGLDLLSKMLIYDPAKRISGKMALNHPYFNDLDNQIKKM
T1 sequence (P14635 whole entry partner): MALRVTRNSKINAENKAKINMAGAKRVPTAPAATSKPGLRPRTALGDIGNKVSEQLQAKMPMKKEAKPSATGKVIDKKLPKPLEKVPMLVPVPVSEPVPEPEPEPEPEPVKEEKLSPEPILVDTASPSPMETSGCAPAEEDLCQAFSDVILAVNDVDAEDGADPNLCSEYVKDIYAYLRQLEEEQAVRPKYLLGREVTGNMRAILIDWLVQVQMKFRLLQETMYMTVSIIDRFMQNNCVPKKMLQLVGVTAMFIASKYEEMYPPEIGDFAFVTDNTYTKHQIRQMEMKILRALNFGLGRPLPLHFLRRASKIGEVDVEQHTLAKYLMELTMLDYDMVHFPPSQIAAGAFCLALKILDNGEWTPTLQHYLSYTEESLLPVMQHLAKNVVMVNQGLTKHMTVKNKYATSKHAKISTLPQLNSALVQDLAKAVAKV
Sequence of HER2 (P04626 23-1255, species assumed): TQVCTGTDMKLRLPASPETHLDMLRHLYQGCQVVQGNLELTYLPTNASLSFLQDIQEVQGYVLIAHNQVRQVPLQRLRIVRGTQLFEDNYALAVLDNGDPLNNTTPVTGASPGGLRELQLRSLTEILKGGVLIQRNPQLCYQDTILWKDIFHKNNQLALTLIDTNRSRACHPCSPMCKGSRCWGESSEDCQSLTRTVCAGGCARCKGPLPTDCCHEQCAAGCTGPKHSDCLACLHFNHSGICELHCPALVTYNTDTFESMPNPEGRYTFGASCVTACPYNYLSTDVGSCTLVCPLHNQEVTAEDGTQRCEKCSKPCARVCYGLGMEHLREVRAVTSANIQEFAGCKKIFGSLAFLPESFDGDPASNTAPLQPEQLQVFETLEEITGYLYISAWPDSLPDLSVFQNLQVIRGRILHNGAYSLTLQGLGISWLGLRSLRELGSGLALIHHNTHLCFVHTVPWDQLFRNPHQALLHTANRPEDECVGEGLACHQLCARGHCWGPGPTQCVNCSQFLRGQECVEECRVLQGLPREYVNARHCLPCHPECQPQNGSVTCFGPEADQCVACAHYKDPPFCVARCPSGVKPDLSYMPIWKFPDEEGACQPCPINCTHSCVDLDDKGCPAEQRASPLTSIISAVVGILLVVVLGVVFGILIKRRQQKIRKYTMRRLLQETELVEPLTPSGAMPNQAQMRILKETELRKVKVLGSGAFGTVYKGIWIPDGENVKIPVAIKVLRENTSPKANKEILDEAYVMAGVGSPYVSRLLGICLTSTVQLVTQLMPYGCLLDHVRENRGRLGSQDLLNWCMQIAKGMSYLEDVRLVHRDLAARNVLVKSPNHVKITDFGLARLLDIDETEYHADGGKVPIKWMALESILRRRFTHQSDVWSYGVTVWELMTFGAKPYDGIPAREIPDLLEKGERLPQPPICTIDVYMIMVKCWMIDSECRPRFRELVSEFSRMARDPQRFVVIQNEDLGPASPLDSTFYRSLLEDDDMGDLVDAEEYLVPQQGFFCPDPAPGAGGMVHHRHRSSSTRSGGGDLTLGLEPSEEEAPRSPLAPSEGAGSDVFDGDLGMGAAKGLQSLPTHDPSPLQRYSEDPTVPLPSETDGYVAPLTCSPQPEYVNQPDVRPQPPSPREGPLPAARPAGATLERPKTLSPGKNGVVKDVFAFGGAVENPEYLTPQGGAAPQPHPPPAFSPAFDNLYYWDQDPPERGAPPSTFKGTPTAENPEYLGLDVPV
Sequence of FGF-R2 (P21802 22-821, species assumed): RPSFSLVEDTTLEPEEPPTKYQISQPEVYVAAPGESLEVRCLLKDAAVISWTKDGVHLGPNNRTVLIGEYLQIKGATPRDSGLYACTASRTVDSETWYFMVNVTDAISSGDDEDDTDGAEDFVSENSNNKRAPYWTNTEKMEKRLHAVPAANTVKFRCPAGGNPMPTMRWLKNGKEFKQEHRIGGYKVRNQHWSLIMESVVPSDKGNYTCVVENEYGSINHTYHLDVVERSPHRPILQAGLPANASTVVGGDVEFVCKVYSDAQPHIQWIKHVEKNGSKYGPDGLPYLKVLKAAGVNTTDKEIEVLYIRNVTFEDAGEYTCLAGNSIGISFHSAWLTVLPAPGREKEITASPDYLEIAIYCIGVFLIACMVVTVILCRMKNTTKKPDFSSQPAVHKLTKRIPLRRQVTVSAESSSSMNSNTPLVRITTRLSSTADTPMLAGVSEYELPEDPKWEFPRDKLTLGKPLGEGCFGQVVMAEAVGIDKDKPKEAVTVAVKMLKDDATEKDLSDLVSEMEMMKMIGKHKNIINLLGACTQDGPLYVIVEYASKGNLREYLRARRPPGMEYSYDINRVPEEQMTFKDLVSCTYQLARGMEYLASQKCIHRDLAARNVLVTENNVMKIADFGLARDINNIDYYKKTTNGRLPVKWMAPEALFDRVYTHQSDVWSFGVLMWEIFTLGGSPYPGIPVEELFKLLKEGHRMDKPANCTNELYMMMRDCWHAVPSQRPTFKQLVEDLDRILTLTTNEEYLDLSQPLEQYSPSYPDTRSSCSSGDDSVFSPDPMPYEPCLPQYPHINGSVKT

| Structure (SMILES) | IC50 [2] [µM] | IC50 [4, 6] [µM] | IC50 [5, 7] [µM] | other results |
| --- | --- | --- | --- | --- |
| Clc1cccc(Nc2cncc(-c3cncc(NCCCc4ccncc4)c3)n2)c1 [Cmd 71, N-(3-chlorophenyl)-6-[5-[[3-(4-pyridinyl)propyl]amino]-3-pyridinyl]-2-pyrazinamine] | 3.8 | – | – | IC50 (MDA-MB-231): 1.88 µM; IC50 (HCT-116 colon carcinoma): 3.29 µM; IC50 [1]: 3.2 µM |
| Clc1cccc(Nc2cncc(-c3cncc(NCCCc4cccnc4)c3)n2)c1 [Cmd 72, N-(3-chlorophenyl)-6-[5-[[3-(3-pyridinyl)propyl]amino]-3-pyridinyl]-2-pyrazinamine] | 5.7 | – | – | IC50 (MDA-MB-231): 2.57 µM; IC50 (HCT-116 colon carcinoma): 4.97 µM; IC50 [1]: 2.58 µM |
| Clc1cccc(Nc2cncc(-c3cncc(NCCCn4cccn4)c3)n2)c1 [Cmd 75, N-(3-chlorophenyl)-6-[5-[[3-(1H-pyrazol-1-yl)propyl]amino]-3-pyridinyl]-2-pyrazinamine] | 12.5 | – | – | IC50 [3]: > 10 µM; IC50 [1]: 5.34 µM |
| Clc1cccc(Nc2cncc(-c3cncc(NCCCn4cncn4)c3)n2)c1 [Cmd 76, N-(3-chlorophenyl)-6-[5-[[3-(1H-1,2,4-triazol-1-yl)propyl]amino]-3-pyridinyl]-2-pyrazinamine] | 4.94 | – | – | IC50 [3]: 12.9 µM |
| Clc1cccc(Nc2cncc(-c3cncc(NCCCn4ccnc4)c3)n2)c1 [Cmd 77] | – | > 10 | 0.03 | IC50 (HER2): 0.966 µM; IC50 ([4]; Table 4 kinase selectivity, 10 = approximate value, read-out: IC50, Assay 2 CDK1): ~10 µM; IC50 (FGF-R2): 0.221 µM; IC50 ([5]; Table 4 kinase selectivity, read-out: IC50, Assay 1 VEGF-R): 0.03 µM |
| COCCC(=O)Nc1cncc(-c2cncc(Nc3cccc(Cl)c3)n2)c1 [Cmd 103] | – | > 10 | 0.59 | – |
| O=C(CO)Nc1cncc(-c2cncc(Nc3cccc(Cl)c3)n2)c1 [Cmd 105] | – | > 10 | 0.41 | – |

More lines, main results first:

| IC50 [2] [µM] | IC50 [4, 6] [µM] | IC50 [5, 7] [µM] | Structure (SMILES) | other results |
| --- | --- | --- | --- | --- |
| – | > 10 | 0.138 to 0.365 | OCCCNc1cnc(F)c(-c2cncc(Nc3cccc(Cl)c3)n2)c1 [Cmd 106] | – |
| – | > 10 | 1.36 | Nc1ncc(NCCCO)cc1-c1cncc(Nc2cccc(Cl)c2)n1 [Cmd 107] | – |
| – | > 10 | > 10 | CC(=O)Nc1ncc(NCCCO)cc1-c1cncc(Nc2cccc(Cl)c2)n1 [Cmd 109] | – |
| – | > 10 | > 10 | OCCCNc1cnc(Cl)c(-c2cncc(Nc3cccc(Cl)c3)n2)c1 [Cmd 110] | – |
| – | > 10 | > 10 | N#Cc1ncc(NCCCO)cc1-c1cncc(Nc2cccc(Cl)c2)n1 [Cmd 111] | – |
